For one test, the system named is PC3 (prostate). Briefly: In vitro cytotoxic activity (MTT) assay, PC3. It is filed as cell-based. Conditions: Homo sapiens, exposed 96 hours, read-out: IC50, 50% inhibition of cell proliferation. The method, then: (§1) Compounds 1-16 were screened for their in vitro cytotoxic activity utilizing a 3-(4,5-dimethyl-thiazol-2-yl)-2,5-diphenyltetrazolium bromide (MTT) assay against selected cancer human cell lines consisting of PC3 (prostate), HCT116 (colon), A375 (melanoma), H1299 (lung), MIAPaCa-2 (pancreas), HL60 (leukemia), MCF7 (breast), MDA-MB-231 (breast) (T. Mosmann, J. Immunol. Meth., 1983, 65, 55-63). The cells were cultured at 37° C. in RMPI1640 medium supplemented with 10% fetal bovine serum, 50 IU/mL penicillin, and 50 μg/mL streptomycin in a 5% CO2 incubator. All cells were sub-cultured 3 times/week by trypsinisation. Viable cells were seeded and allowed to adhere for 12 h before a test drug was added in 96-well plates at an initial density of 1.0×10^5 cells/mL. Tumour cell lines were separately exposed to various concentrations of the tested compounds followed by incubation at a temperature of 37° C. during 96 h inside a medium of fresh RMPI 1640. Cells were subsequently incubated at 37° C. using MTT at 0.5 mg/mL during 4 h. After removal of supernatant, formazan crystals were dissolved in isopropanol and the optical density was measured at 570 nm. CX-4945 was used as a positive control.

A further test deals with HCT116 (colon). Briefly: In vitro cytotoxic activity (MTT) assay, HCT116. It is filed as cell-based. Conditions: Homo sapiens, HCT-116, exposed 96 hours, read-out: IC50, 50% inhibition of cell proliferation. The method, then:
as §1

A further test has as its system A375 (melanoma). Briefly: In vitro cytotoxic activity (MTT) assay, A375. Conditions: Homo sapiens, A-375, exposed 96 hours, read-out: IC50, 50% inhibition of cell proliferation. It counts as cell-based. The method, then: as §1
A further test concerns H1299 (lung). As to the kind of experiment: In vitro cytotoxic activity (MTT) assay, H1299. It counts as cell-based. Conditions: Homo sapiens, NCI-H1299, exposed 96 hours, read-out: IC50, 50% inhibition of cell proliferation. The protocol: as §1
The next test concerns MIAPaCa-2 (pancreas). As to the kind of experiment: In vitro cytotoxic activity (MTT) assay, MIAPaCa-2. It is filed as cell-based. Conditions: Homo sapiens, MIA PaCa-2, exposed 96 hours, read-out: IC50, 50% inhibition of cell proliferation. The method, then:
as §1

For the next test, the system named is HL60 (leukemia). Briefly: In vitro cytotoxic activity (MTT) assay, HL60. Conditions: Homo sapiens, HL-60, exposed 96 hours, read-out: IC50, 50% inhibition of cell proliferation. It counts as cell-based. The protocol:
as §1

A further test deals with MCF7 (breast). As to the kind of experiment: In vitro cytotoxic activity (MTT) assay, MCF7. It is filed as cell-based. Conditions: Homo sapiens, exposed 96 hours, read-out: IC50, 50% inhibition of cell proliferation. The protocol:
as §1

The next test deals with MDA-MB-231 (breast). As to the kind of experiment: In vitro cytotoxic activity (MTT) assay, MDA-MB-231. It is filed as cell-based. Conditions: Homo sapiens, exposed 96 hours, read-out: IC50, 50% inhibition of cell proliferation. The method, then:
as §1

Test [1] addresses T1, recombinant human CK2 (RRββ-holoenzyme) (Homo sapiens, UniProt P68400).
T1 construct: purchased Millipore
Briefly: CK2 Kinase Assay (33P-ATP, peptide RRRDDDSDDD). It is filed as biochemical. Conditions: final ATP 15 μM, 10 min at 30° C.; read-out: IC50, protein kinase CK2 activity. The method, then:
CK2 Kinase Assay was conducted using the protocol as described in Pierre F. et al; J. Med. Chem. 2011, 54, 635-654. The tested compounds in aqueous solution were added at a volume of 10 μL to a reaction mixture comprising 10 μL of assay dilution buffer (ADB; 20 mM MOPS, pH 7.2, 25 mM β-glycerol phosphate, 5 mM EGTA, 1 mM sodium orthovanadate, and 1 mM dithiothreitol), 10 μL of substrate peptide (RRRDDDSDDD, dissolved in ADB at a concentration of 1 mM), 10 μL of recombinant human CK2 (RRββ-holoenzyme, 25 ng dissolved in ADB; Millipore). Reactions were initiated by the addition of 10 μL of ATP solution (90% 75 mMMgCl2, 75 μM ATP (final ATP concentration: 15 μM) dissolved in ADB; 10% [γ-33P] ATP (stock 1 mCi/100 μL; 3000 Ci/mmol (Perkin-Elmer) and maintained for 10 min at 30° C. The reactions were quenched with 100 μL of 0.75% phosphoric acid and then transferred to and filtered through a phosphor cellulose filter plate (Millipore). After washing each well five times with 0.75% phosphoric acid, the plate was dried under vacuum for 5 min and, following the addition of 15 μL of scintillation fluid to each well, the residual radioactivity was measured using a Wallac […] counter. The IC50 values were derived from eight concentrations of test inhibitors.

The structures appear in SMILES notation. pIC50: −log10 of the molar value.

T1 sequence (P68400 whole entry): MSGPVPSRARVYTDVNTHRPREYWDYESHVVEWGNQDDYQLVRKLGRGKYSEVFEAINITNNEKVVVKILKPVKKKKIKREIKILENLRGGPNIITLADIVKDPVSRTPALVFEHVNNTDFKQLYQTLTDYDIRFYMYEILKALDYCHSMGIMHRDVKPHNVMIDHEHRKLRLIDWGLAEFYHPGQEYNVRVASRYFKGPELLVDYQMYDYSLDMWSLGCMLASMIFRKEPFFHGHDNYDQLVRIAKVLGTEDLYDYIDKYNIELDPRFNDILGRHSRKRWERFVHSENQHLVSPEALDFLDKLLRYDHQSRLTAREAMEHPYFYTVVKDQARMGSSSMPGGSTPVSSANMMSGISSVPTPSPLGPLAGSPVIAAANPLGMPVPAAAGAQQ
T1 sequence (P67870 whole entry partner): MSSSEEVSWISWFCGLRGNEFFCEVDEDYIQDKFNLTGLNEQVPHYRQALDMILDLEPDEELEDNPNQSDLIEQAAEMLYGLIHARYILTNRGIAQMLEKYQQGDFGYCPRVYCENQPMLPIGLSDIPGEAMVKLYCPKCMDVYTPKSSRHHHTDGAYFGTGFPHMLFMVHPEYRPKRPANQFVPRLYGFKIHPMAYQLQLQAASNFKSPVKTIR

Consider `O=C(O)c1cc2c([nH]1)c(Nc1cccc(Cl)c1)nc1ccncc12` [Compound 1, 6-((3-chlorophenyl)amino)-7H-pyrrolo[2,3-c][1,6]naphthyridine-8-carboxylic acid], for which the pIC50 in the test on PC3 (prostate) was 5.74; in the test on HCT116 (colon) it was 5.80; with A375 (melanoma), 5.60; in the test on H1299 (lung), 5.96; in the test on MIAPaCa-2 (pancreas), 5.89; in the test with HL60 (leukemia) it was 5.55. The pIC50 was 5.41 in the test with MCF7 (breast), 5.49 in the test on MDA-MB-231 (breast) and 7.68 in test [1].

The values above are taken from patent publication US11891394B1, “Pyrrolo[2,3-c][1,6]naphthyridine-8-carboxylic acid compounds as CK2 inhibitors” (KING FAISAL UNIVERSITY, priority 2023, dated 2024).
